One experiment relates to MCF-7 cells. Briefly: Breast Cancer Cell Viability Assay (CellTiter-Glo). The experiment is classed as cell-based. To be noted: 5 days of compound exposure; for IC50: Homo sapiens, MCF7, 120 h, read-out: MCF7 viab IC50. The protocol:
The following day a 10 point, serial 1:5 dilution of each compound was added to the cells in 16 μL at a final concentration ranging from 10-0.00000 μM. After 5 days of compound exposure, 16 μL of CellTiter-GLo (Promega, Madison Wis.) was added to the cells, and the relative luminescence units (RLUs) of each well were determined. CellTiter-Glo added to 32 μL of medium without cells was used to obtain a background value.
(In general: ATP-based viability assays read luminescence as a measure of living cells.)

The next experiment deals with T1, ER-α (Homo sapiens, UniProt P03372).
T1 construct: MCF7 cells were trypsinized and washed twice; endogenous in cells; host or cells: MCF7 breast cancer cells
T1 sequence (P03372 1-595): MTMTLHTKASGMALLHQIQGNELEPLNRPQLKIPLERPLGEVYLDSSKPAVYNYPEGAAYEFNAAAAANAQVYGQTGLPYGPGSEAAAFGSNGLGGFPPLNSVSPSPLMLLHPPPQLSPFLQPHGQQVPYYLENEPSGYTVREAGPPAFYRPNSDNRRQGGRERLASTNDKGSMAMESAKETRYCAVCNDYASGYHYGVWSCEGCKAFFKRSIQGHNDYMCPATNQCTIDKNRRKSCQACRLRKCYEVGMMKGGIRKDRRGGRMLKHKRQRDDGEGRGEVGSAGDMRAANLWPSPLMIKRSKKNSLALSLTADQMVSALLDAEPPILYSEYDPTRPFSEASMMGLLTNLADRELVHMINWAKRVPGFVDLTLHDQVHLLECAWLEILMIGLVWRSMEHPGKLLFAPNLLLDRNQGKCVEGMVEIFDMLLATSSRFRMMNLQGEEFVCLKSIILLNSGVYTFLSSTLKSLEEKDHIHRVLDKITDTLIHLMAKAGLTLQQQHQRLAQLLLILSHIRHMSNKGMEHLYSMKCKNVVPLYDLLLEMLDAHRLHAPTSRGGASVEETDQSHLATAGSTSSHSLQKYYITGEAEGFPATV
Briefly: ER-α In Cell Western Assay. In kind it is cell-based. To be noted: MCF7 cells, 4 hours post compound addition, SP1 anti-ER antibody; read-out: ICW (SP1) max response. The protocol:
MCF7 cells were trypsinized and washed twice in Phenol Red Free RPMI containing 5% Charcoal Dextran Stripped serum with 20 mM HEPES and NEAA, then adjusted to a concentration of 200,000 cells per mL with the same medium. Next, 16 μL of the cell suspension (3200 cells) was added to each well of a poly-D-lysine coated 384 well plate, and the cells were incubated at 37° C. over 4 days to allow the cells to adhere and grow. […] At 4 hours post compound addition, the cells were fixed by adding 16 μL of 30% formalin to the 32 μL of cells and compound (10% formalin final concentration) for 20 minutes. Cells were then washed twice with PBS Tween 0.1% and then permeabilized in PBS 0.1% Triton (50 μl/well) for additional 15 minutes. The PBS 0.1% triton was decanted, and the cells were washed: LI-COR blocking buffer (50 μL/well) was added, the plate was spun at 3000 rpm, and then the blocking buffer was decanted. Additional LI-COR blocking buffer (50 μL/well) was added, and the cells were incubated overnight at 4° C. The blocking buffer was decanted, and the cells were incubated overnight at 4° C. with SP1 (Thermo Scientific) anti-ER rabbit monoclonal antibody diluted 1:1000 in LI-COR blocking buffer/0.1% Tween-20. Wells which were treated with blocking buffer with Tween but no antibody were used as a background control. Wells were washed twice with PBS Tween 0.1% to remove free SP1 antibodies, and the cells were incubated at room temp for 60-90 minutes in LI-COR goat anti-rabbit IRDye™ 800CW (1:1000) and DRAQ5 DNA dye (1:10000 of 5 mM stock solution) diluted in LI-COR blocking buffer containing 0.1% Tween-20 and 0.01% SDS. Cells were then washed with 0.1% Tween-20/PBS three times. Plates were scanned on a LI-COR Odyssey infrared imaging system. Integrated intensities in the 800 nm channel and 700 nm channel were measured to determine levels of ER-α and DNA respectively. Percent ER levels were determined as follows: (Integrated intensity […] sample/integrated intensity 700 nm sample)/(Integrated intensity 800 nm untreated cells/integrated intensity 700 nm untreated cells)×100=% ER levels.

The term IC50 denotes the midpoint of a concentration-inhibition curve. For `CC1=C(c2cccc(O)c2)C(c2ccc(OC[C@H](C)N3CC[C@@H](C)C3)cc2)Oc2c1ccc1[nH]ncc21` (stereo partly drawn) [Example 15, 3-(4-Methyl-2-(4-((S)-2-((R)-3-methylpyrrolidin-1-yl)propoxy)phenyl)-2,7-dihydropyrano[2,3-e]indazol-3-yl)phenol], in the experiment on MCF-7 cells, the “MCF7 viab max response” value amounted to 65.6 and the half-inhibitory concentration (IC50) amounted to 460 pM. Moreover, the Emax on ER-α was 79.5%.
As for `C[C@]12CC[C@@H]3c4ccc(O)cc4C[C@@H](CCCCCCCCC[S+]([O-])CCCC(F)(F)C(F)(F)F)[C@H]3[C@@H]1CC[C@@H]2O` (stereo partly drawn) [fulvestrant, reference compound], in the experiment on MCF-7 cells, the “MCF7 viab max response” value is 74.6 and the IC50 came out at 560 pM. In addition, the Emax at ER-α was 93.6%.
